The values that follow come from patent publication US10961228B2, “JAK1 selective inhibitors” (AstraZeneca AB, priority 2017, dated 2021).

SMILES strings stand for the structures. pIC50: −log10 of the molar value.

For assay [1], the system named is OVA-challenged Brown Norway rat. Kind of assay: OVA lung inflammation model, eosinophils in broncho alveolar lavage. As to conditions: i.t. over dose 2*300, twice daily Day14 (Group 8). The format is in vivo. Here is the method:
Brown Norway rats were sensitised and challenged with chicken ovary albumin (OVA) (Clinical and Experimental Allergy, 37 (2007) 973-988). After inhaling an amount of micronized compound within the scope of the present disclosure, the reduction in airway inflammation in the lung of OVA-challenged Brown Norway rat was measured as % reduction of eosinophils in broncho alveolar lavage (BAL) compared to challenged, but untreated rat using the following protocol. As the model control, an i.t. over dose (2*300 μg/kg) of the model reference compound, Budesonide, was used. 74 animals were divided into 8 experimental groups and treated as follows: • Group 1 (Saline/Saline/Air), n=6—Sham (saline) sensitisation at Day0 (S1) and Day7 (S2) and sham (saline) challenged at Day14 (P1). Treatment room air • Group 2 (OVA/Saline/Lactose), n=8—Sensitised at Day0 (S1) and Day7 (S2) with Al(OH)3/OVA mixture followed by the i.t. sham (saline) challenge at Day14 (P1). Treatment DPI Lactose. • Group 3 (OVA/OVA/Lactose), n=12—Sensitised at Day0 (S1) and Day7 (S2) with Al(OH)3/OVA mixture followed by the i.t. OVA challenge at Day14 (P1). […] Treatment i.t. with Budesonide (model reference compound) at 2×300 μg/kg Day14. Twice daily. Prior to start of first sensitisation (S1), the body weight (BW) was recorded and all rats were tail marked with the identification number. The BW was additionally recorded prior to S2 and prior to the termination point (D15). All of the animals' BAL was determined. At the time of termination, the performer(s) (investigator) were blinded to the status of the individual rats, The rats where subcutaneously (s.c.) injected with a mixture of OVA/Al(OH)3 (100 μg OVA:100 mg Alum in 1 ml saline/rat), and intraperitoneally (i.p.) injected with 0.5 ml/rat of B. Pertussis toxin (0.1 μg/ml) at Day 0 and Day 7. Sham sensitisation was performed by s.c. and i.p. injections of isotonic saline with the same volume and strategy. Each exposure system consisted of a flow-past exposure inhalation chamber, rat restraining tubes and a Modified Wright Dust Feed mechanism. Measurements of the aerosol concentration in the inhalation chamber for each dose level was performed by filter sampling at one of the inhalation ports (AP40, 47 mm, Millipore). […] Rats from Group 2 and 3 were exposed to lactose in the restraining tube (Battelle chambers). Target inhaled doses (μg/kg) were calculated assuming exposure duration of 2-10 minutes and a body weight of 250 g using the following formula: The rats were weighed the day prior to OVA challenge. At challenge the rats were anaesthetised with Isoflurane mixture (air and 4% isoflurane) put in supine position with 30-40° angle and instilled with vehicle or compound. This intra-tracheal instillation was performed by using a modified metal cannula with bolus-bulb on the end. Rats were placed in. cages in a supine position with a head up until regaining consciousness. The reference compound was administered twice daily with the second daily administration 6 hours post the first daily administration. Instillation volume: 0.25 mL/rat. Five minutes (5′) before OVA challenge, blood was collected (0.2 ml) from the tongue vein and plasma (60 ul/well) was collected on 96-deepwell plate. The provocation occurred at Day14 (P1) and was applied 2 hours after compound administration. The rats were anaesthetized with Isoflurane mixture (air and 4% isoflurane) put in supine position with 30-40° angle and instilled with the isotonic saline or OVA (0.1 mg/ml). The intra-tracheal instillation was performed. by using a modified metal cannula with bolus-bulb on the end. Rats were placed in cages in a supine position with a head up until regaining consciousness. Sham challenge was performed by i.t. instillation of isotonic saline with the same volume and strategy. Instillation volume: 0.25 ml/rat. At 22 hours post OVA challenge (P1), rats were euthanized with an intraperitoneal injection of 1 ml pentobarbital (50 mg/ml). […]

For assay [2], the target named is recombinant JAK1 (amino acids 866-1154) (Homo sapiens (Human), UniProt P23458). In words: Enzyme inhibition studies, JAK1 (5 mM ATP, Caliper). The assay is classed as biochemical. In short, it runs like this:
(§1)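 N-terminal GST-fused kinase domains from insect cells, run at 5 mM ATP with inhibitor at 30, 3, 0.3, 0.03, 0.003 and 0 μM final.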

Assay [3] addresses recombinant JAK3 (amino acids 781-1124) (Homo sapiens (Human), UniProt P52333). In words: Enzyme inhibition studies, JAK3 (5 mM ATP, Caliper). The format is biochemical. A digest of the protocol: as §1
The subject of assay [4] is IL-13 induced STAT6 promotor luciferase reporter in U937 monocytes (U937-STAT6-Luc). In words: Cellular interleukin (IL-13) induced JAK-STAT6-luciferase assay (pSTAT6). The format is cell-based. The following applies: Homo sapiens, U-937; IL-13 induced STAT6-luciferase, U937-STAT6-Luc cells. In short, it runs like this:
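U937 STAT6-luciferase reporter cells in HEPES/HBSS/0.1% BSA buffer, pretreated with serially diluted compounds (10 mM to 0.5 nM DMSO stocks) and stimulated with IL-13. Incubation 4½ h at 37 °C then 30 min at room temperature; SteadyGlo luminescence read.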

Assay [5] deals with recombinant JAK2 (amino acids 831-1132) (Homo sapiens (Human), UniProt O60674). In words: Enzyme inhibition studies, JAK2 (5 mM ATP, Caliper). The format is biochemical. In short, it runs like this: as §1
Chain of recombinant JAK2 (amino acids 831-1132) (O60674 831-1132): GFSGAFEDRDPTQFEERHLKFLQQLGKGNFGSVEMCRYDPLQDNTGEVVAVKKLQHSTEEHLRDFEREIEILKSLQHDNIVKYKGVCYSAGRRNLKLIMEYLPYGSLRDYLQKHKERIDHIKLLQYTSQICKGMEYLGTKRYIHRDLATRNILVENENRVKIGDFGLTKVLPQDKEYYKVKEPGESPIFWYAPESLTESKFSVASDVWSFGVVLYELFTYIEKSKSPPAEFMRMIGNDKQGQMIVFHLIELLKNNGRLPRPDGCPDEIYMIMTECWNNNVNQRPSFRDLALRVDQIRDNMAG

Chain of recombinant JAK1 (amino acids 866-1154) (P23458 866-1154): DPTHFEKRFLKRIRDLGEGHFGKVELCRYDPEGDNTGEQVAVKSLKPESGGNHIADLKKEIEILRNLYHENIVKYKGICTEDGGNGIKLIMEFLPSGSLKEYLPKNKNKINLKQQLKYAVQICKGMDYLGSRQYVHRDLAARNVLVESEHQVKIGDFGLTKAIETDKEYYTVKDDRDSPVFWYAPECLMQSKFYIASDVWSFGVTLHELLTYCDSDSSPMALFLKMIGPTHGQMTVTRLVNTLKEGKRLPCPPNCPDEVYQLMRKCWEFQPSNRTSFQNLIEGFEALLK
Chain of recombinant JAK3 (amino acids 781-1124) (P52333 781-1124): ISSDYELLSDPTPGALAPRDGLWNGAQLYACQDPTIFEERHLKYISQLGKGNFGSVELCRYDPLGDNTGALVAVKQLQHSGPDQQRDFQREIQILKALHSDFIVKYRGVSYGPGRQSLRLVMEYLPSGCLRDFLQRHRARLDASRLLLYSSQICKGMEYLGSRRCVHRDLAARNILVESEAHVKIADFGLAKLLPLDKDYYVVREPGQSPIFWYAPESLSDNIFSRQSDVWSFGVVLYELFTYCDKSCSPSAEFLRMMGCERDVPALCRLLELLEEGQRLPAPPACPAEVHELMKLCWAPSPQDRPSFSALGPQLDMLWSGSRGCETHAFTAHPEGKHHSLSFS

As to `CCCC1O[C@@H]2C[C@H]3[C@@H]4CCC5=CC(=O)C=C[C@]5(C)[C@H]4[C@@H](O)C[C@]3(C)[C@]2(C(=O)CO)O1` (stereo partly drawn) [Budesonide, reference compound], the inhibition of eosinophils in assay [1] turned out to be 97%.

Turning to `Cc1cnc(Nc2cccc(S(C)(=O)=O)c2F)nc1-c1c[nH]c2c(NC(=O)[C@H](C)N3CCN(C)C[C@H]3C)cccc12` [Example 47, (S)-2-((R)-2,4-dimethylpiperazin-1-yl)-N-(3-(2-((2-fluoro-3-(methylsulfonyl)phenyl)amino)-5-methylpyrimidin-4-yl)-1H-indol-7-yl)propanamide], the pIC50 in assay [2] is 6.74; in assay [3] it was less than 4.52; in assay [4], 6.21; in assay [5], less than 4.52.

As to `Cc1cnc(Nc2cccc(S(C)(=O)=O)c2F)nc1-c1c[nH]c2c(NC(=O)[C@@H](C)N3CCN(C)C[C@H]3C)cccc12` [Example 48, (R)-2-((R)-2,4-dimethylpiperazin-1-yl)-N-(3-(2-((2-fluoro-3-(methylsulfonyl)phenyl)amino)-5-methylpyrimidin-4-yl)-1H-indol-7-yl)propanamide], the pIC50 is 8.52 in assay [2], less than 4.52 in assay [3], 7.09 in assay [4] and 5.08 in assay [5].

With `COC[C@@H](C(=O)Nc1cccc2c(-c3nc(Nc4cccc(S(C)(=O)=O)c4F)ncc3C)c[nH]c12)N1CCN(C)C[C@H]1C` [Example 54, (S)-2-((R)-2,4-dimethylpiperazin-1-yl)-N-(3-(2-((2-fluoro-(methylsulfonyl)phenyl)amino)-5-methylpyrimidin-4-yl)-1H-indol-7-yl)-3-methoxypropanamide], the pIC50 in assay [2] was 7.85; in assay [3] it was less than 4.52; in assay [4], 6.59; in assay [5], 5.17.

As to `COC[C@H](C(=O)Nc1cccc2c(-c3nc(Nc4cccc(S(C)(=O)=O)c4F)ncc3C)c[nH]c12)N1CCN(C)C[C@H]1C` [Example 55, (R)-2-((R)-2,4-dimethylpiperazin-1-yl)-N-(3-(2-((2-fluoro-3-(methylsulfonyl)phenyl)amino)-5-methylpyrimidin-4-yl)-1H-indol-7-yl)-3-methoxypropanamide], the pIC50 is more than 8.52 in assay [2], less than 4.52 in assay [3], 7.59 in assay [4] and 6.53 in assay [5].

As for `COC[C@@H](C(=O)Nc1cccc2c(-c3nc(Nc4cccc(S(C)(=O)=O)c4F)ncc3F)c[nH]c12)N1CCN(C)C[C@H]1C` [Example 56], the pIC50 was 6.91 in assay [2], less than 4.52 in assay [3], 6.13 in assay [4] and less than 4.52 in assay [5].

`COC[C@H](C(=O)Nc1cccc2c(-c3nc(Nc4cccc(S(C)(=O)=O)c4F)ncc3F)c[nH]c12)N1CCN(C)C[C@H]1C` [Example 57, (R)-2-((R)-2,4-dimethylpiperazin-1-yl)-N-(3-(5-fluoro-2-((2-fluoro-3-(methylsulfonyl)phenyl)amino)pyrimidin-4-yl)-1H-indol-7-yl)-3-methoxypropanamide]: the negative logarithm of the IC50 (pIC50) in assay [2] is more than 8.52; in assay [3] it was less than 4.52; in assay [4], 7.68; in assay [5], 6.15.

For `Cc1cnc(Nc2cccc(S(C)(=O)=O)c2F)nc1-c1c[nH]c2c(NC(=O)[C@@H](C)N3CCN(C)C[C@@H]3C)cccc12` [Example 58, (R)-2-((S)-2,4-dimethylpiperazin-1-yl)-N-(3-(2-((2-fluoro-3-(methylsulfonyl)phenyl)amino)-5-methylpyrimidin-4-yl)-1H-indol-7-yl)propanamide], the negative logarithm of the IC50 (pIC50) in assay [2] is 7.31; in assay [3], less than 4.52; in assay [4], 6.89; in assay [5], 4.60.

Turning to `Cc1cnc(Nc2cccc(S(C)(=O)=O)c2F)nc1-c1c[nH]c2c(NC(=O)[C@H](C)N3CCN(C)C[C@@H]3C)cccc12` [Example 59, (S)-2-((S)-2,4-dimethylpiperazin-1-yl)-N-(3-(2-((2-fluoro-3-(methylsulfonyl)phenyl)amino)-5-methylpyrimidin-4-yl)-1H-indol-7-yl)propanamide], the pIC50 in assay [2] was 6.84; in assay [3], less than 4.52; in assay [4], less than 5.20; in assay [5] it was less than 4.52.

Consider `CCOC[C@H](C(=O)Nc1cccc2c(-c3nc(Nc4cccc(S(C)(=O)=O)c4F)ncc3C)c[nH]c12)N1CCN(C)CC1` [Example 62, (R)-3-ethoxy-N-(3-(2-((2-fluoro-3-(methylsulfonyl)phenyl)amino)-5-methylpyrimidin-4-yl)-1H-indol-7-yl)-2-(4-methylpiperazin-1-yl)propanamide], for which the pIC50 in assay [2] was more than 8.52; in assay [3], less than 4.52; in assay [4], 7.27; in assay [5], 5.38.

On to `Cc1cnc(Nc2cccc(S(C)(=O)=O)c2F)nc1-c1c[nH]c2c(NC(=O)[C@@H](COCc3ccccc3)N3CCN(C)CC3)cccc12` [Example 64, (R)-3-(benzyloxy)-N-(3-(2-((2-fluoro-3-(methylsulfonyl)phenyl)amino)-5-methylpyrimidin-4-yl)-1H-indol-7-yl)-2-(4-methylpiperazin-1-yl)propanamide], for which the negative-log IC50 (pIC50) is more than 7.52 in assay [2], less than 4.52 in assay [3], 7.59 in assay [4] and 6.04 in assay [5].

As for `Cc1cnc(Nc2cccc(S(C)(=O)=O)c2F)nc1-c1c[nH]c2c(NC(=O)[C@H](COCc3ccccc3)N3CCN(C)CC3)cccc12` [Example 65, (S)-3-(benzyloxy)-N-(3-(2-((2-fluoro-3-(methylsulfonyl)phenyl)amino)-5-methylpyrimidin-4-yl)-1H-indol-7-yl)-2-(4-methylpiperazin-1-yl)propanamide], the pIC50 is 7.14 in assay [2], less than 4.52 in assay [3], 6.29 in assay [4] and less than 4.52 in assay [5].
